Source: PubChem BioAssay (NCI)
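Briefly, cells in 96-well plates were exposed to five compound concentrations for 48 h, and endpoints were estimated by linear interpolation. The concentration for full growth arrest is given as TGI.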

Experiments:
Assay in all cases: DTP human tumour cell line panel, 48 h
TK-10 renal = tested on: TK-10 renal
HCT-15 colon = tested on: HCT-15 colon
EKVX NSCLC = tested on: EKVX NSCLC
HOP-62 NSCLC = tested on: HOP-62 NSCLC
SK-MEL-28 melanoma = tested on: SK-MEL-28 melanoma
NCI-H460 lung = tested on: NCI-H460 lung
KM12 colon = tested on: KM12 colon
CCRF-CEM leukemia = tested on: CCRF-CEM leukemia
SF-268 CNS = tested on: SF-268 CNS
SN12C renal = tested on: SN12C renal
LOX IMVI melanoma = tested on: LOX IMVI melanoma
HT29 colon = tested on: HT29 colon
BT-549 breast = tested on: BT-549 breast
COLO 205 colon = tested on: COLO 205 colon
OVCAR-8 ovarian = tested on: OVCAR-8 ovarian
HCC-2998 colon = tested on: HCC-2998 colon
RPMI-8226 leukemia = tested on: RPMI-8226 leukemia
A498 renal = tested on: A498 renal
NCI-H522 lung = tested on: NCI-H522 lung
OVCAR-5 ovarian = tested on: OVCAR-5 ovarian
SK-MEL-5 melanoma = tested on: SK-MEL-5 melanoma
UO-31 renal = tested on: UO-31 renal
ACHN renal = tested on: ACHN renal
MDA-MB-435 = tested on: MDA-MB-435
DU-145 prostate = tested on: DU-145 prostate
MOLT-4 leukemia = tested on: MOLT-4 leukemia
NCI-H226 lung = tested on: NCI-H226 lung
UACC-62 melanoma = tested on: UACC-62 melanoma
K-562 leukemia = tested on: K-562 leukemia
SNB-19 CNS = tested on: SNB-19 CNS
PC-3 prostate = tested on: PC-3 prostate
RXF 393 renal = tested on: RXF 393 renal
UACC-257 melanoma = tested on: UACC-257 melanoma
CAKI-1 renal = tested on: CAKI-1 renal
SNB-75 CNS = tested on: SNB-75 CNS
IGROV1 ovarian = tested on: IGROV1 ovarian
OVCAR-4 ovarian = tested on: OVCAR-4 ovarian
HCT-116 colon = tested on: HCT-116 colon
HOP-92 NSCLC = tested on: HOP-92 NSCLC
M14 melanoma = tested on: M14 melanoma
786-0 renal = tested on: 786-0 renal
A549 NSCLC = tested on: A549 NSCLC
MDA-N = tested on: MDA-N
NCI-H23 lung = tested on: NCI-H23 lung
U251 CNS = tested on: U251 CNS
SF-295 CNS = tested on: SF-295 CNS
SR leukemia = tested on: SR leukemia
MCF7 breast = tested on: MCF7 breast
MALME-3M melanoma = tested on: MALME-3M melanoma
HS 578T breast = tested on: HS 578T breast
SK-MEL-2 melanoma = tested on: SK-MEL-2 melanoma
MDA-MB-231 breast = tested on: MDA-MB-231 breast
NCI/ADR-RES ovarian = tested on: NCI/ADR-RES ovarian
SK-OV-3 ovarian = tested on: SK-OV-3 ovarian
T-47D breast = tested on: T-47D breast
HL-60(TB) leukemia = tested on: HL-60(TB) leukemia
OVCAR-3 ovarian = tested on: OVCAR-3 ovarian
SW-620 colon = tested on: SW-620 colon
SF-539 CNS = tested on: SF-539 CNS

CC(=O)NC1=C(C)C(=O)c2c(nc3n2CCC3OC(=O)c2ccccc2)C1=N (stereo not drawn)
TGI (TK-10 renal): 9.17 µM
TGI (HCT-15 colon): 7.47 µM
TGI (EKVX NSCLC): 6 µM
TGI (HOP-62 NSCLC): 7.28 µM
TGI (SK-MEL-28 melanoma): 3.45 µM
TGI (NCI-H460 lung): 3.07 µM
TGI (KM12 colon): 11.6 µM
TGI (CCRF-CEM leukemia): 9.71 µM
TGI (SF-268 CNS): 6.28 µM
TGI (SN12C renal): 3.16 µM
TGI (LOX IMVI melanoma): 1.33 µM
TGI (HT29 colon): 3.96 µM
TGI (BT-549 breast): 1.65 µM
TGI (COLO 205 colon): 3.27 µM
TGI (OVCAR-8 ovarian): 8.5 µM
TGI (HCC-2998 colon): 3.79 µM
TGI (RPMI-8226 leukemia): 4.34 µM
TGI (A498 renal): 3.66 µM
TGI (NCI-H522 lung): 7.47 µM
TGI (OVCAR-5 ovarian): 7.36 µM
TGI (SK-MEL-5 melanoma): 2.83 µM
TGI (UO-31 renal): 4.34 µM
TGI (ACHN renal): 3.13 µM
TGI (MDA-MB-435): 0.319 µM
TGI (DU-145 prostate): 3.44 µM
TGI (MOLT-4 leukemia): 5.24 µM
TGI (NCI-H226 lung): 13.9 µM
TGI (UACC-62 melanoma): 1.09 µM
TGI (K-562 leukemia): 5.65 µM
TGI (SNB-19 CNS): 11.7 µM
TGI (PC-3 prostate): 6.85 µM
TGI (RXF 393 renal): 2.9 µM
TGI (UACC-257 melanoma): 3.47 µM
TGI (CAKI-1 renal): 4 µM
TGI (SNB-75 CNS): 5.27 µM
TGI (IGROV1 ovarian): 3.58 µM
TGI (OVCAR-4 ovarian): 1.2 µM
TGI (HCT-116 colon): 21.2 µM
TGI (HOP-92 NSCLC): 5.47 µM
TGI (M14 melanoma): 2.76 µM
TGI (786-0 renal): 3.65 µM
TGI (A549 NSCLC): 11 µM
TGI (MDA-N): 0.347 µM
TGI (NCI-H23 lung): 3.83 µM
TGI (U251 CNS): 9.45 µM
TGI (SF-295 CNS): 6.53 µM
TGI (SR leukemia): 7.73 µM
TGI (MCF7 breast): 2.53 µM
TGI (MALME-3M melanoma): 2.45 µM
TGI (HS 578T breast): 5.4 µM
TGI (SK-MEL-2 melanoma): 4.18 µM
TGI (MDA-MB-231 breast): 6.45 µM
TGI (NCI/ADR-RES ovarian): 8.52 µM
TGI (SK-OV-3 ovarian): 6.59 µM
TGI (T-47D breast): 10.9 µM
TGI (HL-60(TB) leukemia): 3.74 µM
TGI (OVCAR-3 ovarian): 5.71 µM
TGI (SW-620 colon): 5.17 µM
TGI (SF-539 CNS): 2.56 µM

COC(=O)C1=C(OC(=O)/C(=C/c2ccc(Cl)cc2Cl)c2ccc(Cl)cc2Cl)C(C(=O)OC)[C@@]2(O)[C@@H](C(=O)OC)[C@H](C)C[C@@H]1[C@@H]2C(=O)OC (stereo partly drawn)
TGI (TK-10 renal): > 100 µM
TGI (HCT-15 colon): > 100 µM
TGI (EKVX NSCLC): > 100 µM
TGI (HOP-62 NSCLC): > 100 µM
TGI (SK-MEL-28 melanoma): > 100 µM
TGI (NCI-H460 lung): > 100 µM
TGI (KM12 colon): > 100 µM
TGI (CCRF-CEM leukemia): > 100 µM
TGI (SF-268 CNS): > 100 µM
TGI (SN12C renal): > 100 µM
TGI (LOX IMVI melanoma): > 100 µM
TGI (HT29 colon): > 100 µM
TGI (BT-549 breast): > 100 µM
TGI (COLO 205 colon): > 100 µM
TGI (OVCAR-8 ovarian): > 100 µM
TGI (HCC-2998 colon): > 100 µM
TGI (RPMI-8226 leukemia): > 100 µM
TGI (A498 renal): > 100 µM
TGI (NCI-H522 lung): > 100 µM
TGI (OVCAR-5 ovarian): > 100 µM
TGI (SK-MEL-5 melanoma): > 100 µM
TGI (UO-31 renal): > 100 µM
TGI (ACHN renal): > 100 µM
TGI (MDA-MB-435): > 100 µM
TGI (DU-145 prostate): > 100 µM
TGI (MOLT-4 leukemia): > 100 µM
TGI (NCI-H226 lung): > 100 µM
TGI (UACC-62 melanoma): > 100 µM
TGI (K-562 leukemia): > 100 µM
TGI (SNB-19 CNS): > 100 µM
TGI (PC-3 prostate): > 100 µM
TGI (RXF 393 renal): > 100 µM
TGI (UACC-257 melanoma): > 100 µM
TGI (CAKI-1 renal): > 100 µM
TGI (SNB-75 CNS): > 100 µM
TGI (IGROV1 ovarian): > 100 µM
TGI (OVCAR-4 ovarian): > 100 µM
TGI (HCT-116 colon): > 100 µM
TGI (HOP-92 NSCLC): > 100 µM
TGI (M14 melanoma): > 100 µM
TGI (786-0 renal): > 100 µM
TGI (A549 NSCLC): > 100 µM
TGI (MDA-N): > 100 µM
TGI (NCI-H23 lung): > 100 µM
TGI (U251 CNS): > 100 µM
TGI (SF-295 CNS): > 100 µM
TGI (SR leukemia): > 100 µM
TGI (MCF7 breast): > 100 µM
TGI (MALME-3M melanoma): > 100 µM
TGI (HS 578T breast): > 100 µM
TGI (SK-MEL-2 melanoma): > 100 µM
TGI (MDA-MB-231 breast): > 100 µM
TGI (NCI/ADR-RES ovarian): > 100 µM
TGI (SK-OV-3 ovarian): > 100 µM
TGI (T-47D breast): > 100 µM
TGI (HL-60(TB) leukemia): > 100 µM
TGI (OVCAR-3 ovarian): > 100 µM
TGI (SW-620 colon): > 100 µM
TGI (SF-539 CNS): > 100 µM
